Test results reported in the NIST ThermoML archive (doi:10.1016/j.jct.2006.05.008).

Assay: molar heat capacity at constant pressure
Conditions: 101.33 kPa

CCC[n+]1ccn(C)c1.[Br-] [1-methyl-3-propylimidazolium bromide]
Conditions | molar heat capacity at constant pressure [J/K/mol]
113 K, Glass, Small (less than 1 g) adiabatic calorimetry | 121
113.61 K, Crystal, Vacuum adiabatic calorimetry | 115.32
113.71 K, Metastable crystal, Small (less than 1 g) adiabatic calorimetry | 119.15
114.61 K, Crystal, Vacuum adiabatic calorimetry | 115.9
114.97 K, Crystal, Vacuum adiabatic calorimetry | 116.19
115.74 K, Glass, Small (less than 1 g) adiabatic calorimetry | 122.66
116.15 K, Metastable crystal, Small (less than 1 g) adiabatic calorimetry | 120.5
116.34 K, Crystal, Vacuum adiabatic calorimetry | 116.93
116.65 K, Crystal, Vacuum adiabatic calorimetry | 117.03
117.71 K, Crystal, Vacuum adiabatic calorimetry | 117.69
118.48 K, Glass, Small (less than 1 g) adiabatic calorimetry | 124.31
118.59 K, Metastable crystal, Small (less than 1 g) adiabatic calorimetry | 121.83
118.69 K, Crystal, Vacuum adiabatic calorimetry | 118.24
119.07 K, Crystal, Vacuum adiabatic calorimetry | 118.47
120.44 K, Crystal, Vacuum adiabatic calorimetry | 119.22
120.73 K, Crystal, Vacuum adiabatic calorimetry | 119.36
121.04 K, Metastable crystal, Small (less than 1 g) adiabatic calorimetry | 123.15
121.24 K, Glass, Small (less than 1 g) adiabatic calorimetry | 125.94
121.82 K, Crystal, Vacuum adiabatic calorimetry | 120.01
122.78 K, Crystal, Vacuum adiabatic calorimetry | 120.51
123.19 K, Crystal, Vacuum adiabatic calorimetry | 120.74
123.49 K, Metastable crystal, Small (less than 1 g) adiabatic calorimetry | 124.47
124.01 K, Glass, Small (less than 1 g) adiabatic calorimetry | 127.58
124.56 K, Crystal, Vacuum adiabatic calorimetry | 121.49
124.82 K, Crystal, Vacuum adiabatic calorimetry | 121.64
125.93 K, Crystal, Vacuum adiabatic calorimetry | 122.24
125.95 K, Metastable crystal, Small (less than 1 g) adiabatic calorimetry | 125.81
126.78 K, Glass, Small (less than 1 g) adiabatic calorimetry | 129.18
126.87 K, Crystal, Vacuum adiabatic calorimetry | 122.8
127.3 K, Crystal, Vacuum adiabatic calorimetry | 122.93
128.42 K, Metastable crystal, Small (less than 1 g) adiabatic calorimetry | 127.1
128.67 K, Crystal, Vacuum adiabatic calorimetry | 123.68
128.92 K, Crystal, Vacuum adiabatic calorimetry | 123.91
129.56 K, Glass, Small (less than 1 g) adiabatic calorimetry | 130.84
130.04 K, Crystal, Vacuum adiabatic calorimetry | 124.38
130.89 K, Metastable crystal, Small (less than 1 g) adiabatic calorimetry | 128.38
130.97 K, Crystal, Vacuum adiabatic calorimetry | 125.11
131.41 K, Crystal, Vacuum adiabatic calorimetry | 125.15
132.34 K, Glass, Small (less than 1 g) adiabatic calorimetry | 132.48
132.79 K, Crystal, Vacuum adiabatic calorimetry | 125.91
133.03 K, Crystal, Vacuum adiabatic calorimetry | 126.19
133.37 K, Metastable crystal, Small (less than 1 g) adiabatic calorimetry | 129.68
134.16 K, Crystal, Vacuum adiabatic calorimetry | 126.6
135.08 K, Crystal, Vacuum adiabatic calorimetry | 127.08
135.13 K, Glass, Small (less than 1 g) adiabatic calorimetry | 134.09
135.53 K, Crystal, Vacuum adiabatic calorimetry | 127.32
135.85 K, Metastable crystal, Small (less than 1 g) adiabatic calorimetry | 130.98
136.16 K, Crystal, Vacuum adiabatic calorimetry | 127.66
136.91 K, Crystal, Vacuum adiabatic calorimetry | 128.04
137.14 K, Crystal, Vacuum adiabatic calorimetry | 128.2
137.92 K, Glass, Small (less than 1 g) adiabatic calorimetry | 135.74
138.28 K, Crystal, Vacuum adiabatic calorimetry | 128.82
138.34 K, Metastable crystal, Small (less than 1 g) adiabatic calorimetry | 132.27
138.66 K, Crystal, Vacuum adiabatic calorimetry | 129
139.66 K, Crystal, Vacuum adiabatic calorimetry | 129.53
140.72 K, Crystal, Vacuum adiabatic calorimetry | 130.08
140.72 K, Glass, Small (less than 1 g) adiabatic calorimetry | 137.41
140.83 K, Metastable crystal, Small (less than 1 g) adiabatic calorimetry | 133.54
141.03 K, Crystal, Vacuum adiabatic calorimetry | 130.25
142.4 K, Crystal, Vacuum adiabatic calorimetry | 130.91
142.78 K, Crystal, Vacuum adiabatic calorimetry | 131.16
143.33 K, Metastable crystal, Small (less than 1 g) adiabatic calorimetry | 134.81
143.52 K, Glass, Small (less than 1 g) adiabatic calorimetry | 139.08
143.79 K, Crystal, Vacuum adiabatic calorimetry | 131.72
144.84 K, Crystal, Vacuum adiabatic calorimetry | 132.23
145.17 K, Crystal, Vacuum adiabatic calorimetry | 132.41
145.82 K, Metastable crystal, Small (less than 1 g) adiabatic calorimetry | 136.13
